Laboratory results from patent US9718790B2, “Triazine derivative and pharmaceutical composition having an analgesic activity comprising the same” (SHIONOGI & CO., LTD., priority 2010, dated 2017).

Biological target: human P2X3 receptor (Homo sapiens (Human), UniProt P56373)
Assay: Evaluation of human P2X3 receptor inhibitory activity (Fluo-3 calcium fluorescence, FDSS 3000, ATP stimulation);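 note: stimulus was 50 nM ATP with fluorescence followed for 3 min, and the response per well was peak post-ATP fluorescence divided by the reading at measurement start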
Type: cell-based
[1] = C6BU-1 cells stably expressing human P2X3 receptor, Fluo-3 fluorescence, FDSS 3000
[2] = C6BU-1 cells stably expressing human P2X3 receptor
[3] = human P2X3 receptor, Test Example 1

Sequence of human P2X3 receptor (P56373 whole entry): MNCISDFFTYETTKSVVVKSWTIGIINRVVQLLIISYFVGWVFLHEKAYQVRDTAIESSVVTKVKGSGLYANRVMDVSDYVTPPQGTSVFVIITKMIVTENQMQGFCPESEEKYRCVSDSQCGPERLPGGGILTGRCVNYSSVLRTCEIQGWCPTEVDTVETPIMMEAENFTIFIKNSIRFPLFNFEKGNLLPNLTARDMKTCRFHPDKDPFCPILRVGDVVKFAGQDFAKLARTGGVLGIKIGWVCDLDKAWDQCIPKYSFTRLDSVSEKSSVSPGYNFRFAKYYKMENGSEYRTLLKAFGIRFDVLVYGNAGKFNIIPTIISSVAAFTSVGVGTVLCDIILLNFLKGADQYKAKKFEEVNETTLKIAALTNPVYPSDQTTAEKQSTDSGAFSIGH

SMILES	IC50 [2] [nM]	also measured
COC(=O)[C@@H](C)Cn1c(=O)[nH]/c(=N\c2ccc(C#CC3CC3)c(C)c2)n(Cc2ccc(Cl)cc2)c1=O [Compound I-1041, (S)-1-(4-chlorobenzyl)-6-(3-mehyl-4-cyclopropylethynylphenylimino)-3-(2-methoxycarbonylpropyl)-1,3,5-triazinane-2,4-dion]		IC50 [1]: 101 nM
Cc1nc2ccc(/N=c3\[nH]c(=O)n(CC(=O)O)c(=O)n3Cc3ccc(Cl)cc3)cc2s1 [Compound I-1610]		IC50 [1]: 251 nM
COC(=O)Cn1c(=O)[nH]/c(=N\c2ccc(OCC3CC3)cc2)n(Cc2ccc(Cl)cc2)c1=O [Compound I-1930]	29	
CCn1c(=O)[nH]/c(=N\c2ccc(Oc3ccnc(NCC(=O)NC)c3)cc2)n(Cc2ccc(Cl)cc2)c1=O [Compound I-2555]		IC50 [3]: 16 nM
CCCOc1ccc(/N=c2\[nH]c(=O)n(C[C@H](C)C(=O)OC)c(=O)n2Cc2ccc(C)cc2)cc1Cl [Compound I-0839]		IC50 [3]: 12 nM
Cc1cc(/N=c2\[nH]c(=O)n(-c3ccc(C(=O)O)cc3)c(=O)n2Cc2ccc(Cl)cc2)ccc1OC(C)C [Compound I-0762]	82	
Cc1nc2ccc(/N=c3\[nH]c(=O)n(CCC(=O)O)c(=O)n3CC3CCC(C)CC3)cc2s1 (centres unmarked) [Compound I-1994]	10	
COC(=O)c1cc(Oc2ccc(/N=c3\[nH]c(=O)n(CCOC4CCCCO4)c(=O)n3Cc3ccc(Cl)cc3)cc2)no1 (centres unmarked) [Compound I-2113]	1	
CC(C)Oc1ccc(/N=c2\[nH]c(=O)n(CCC(=O)NC#N)c(=O)n2Cc2ccc(Cl)cc2)cc1F [Compound I-0758, 1-(4-chlorobenzyl)-6-(3-fluoro-4-isopropoxyphenylimino)-3-[2-(cyanocarbamoyl)ethyl]-1,3,5-triazinane-2,4-dion]	19	
Cc1nc2ccc(/N=c3\[nH]c(=O)n(CC(=O)NCCO)c(=O)n3Cc3ccc(Cl)cc3)cc2s1 [Compound I-1661]		IC50 [1]: 6 nM
CCOC(=O)CCCn1c(=O)[nH]/c(=N\c2ccc(Oc3ccc(C)nc3)cc2)n(Cc2ccc(C)cc2)c1=O [Compound I-1369]	3	
C=COc1ccc(/N=c2\[nH]c(=O)n(C[C@H](C)C(=O)OC)c(=O)n2Cc2ccc(C)cc2)cc1Cl [Compound I-1548]		IC50 [3]: 5 nM
CCOC(=O)CCn1c(=O)[nH]/c(=N\c2ccc(CC(C)C)c(F)c2)n(Cc2ccc(C)cc2)c1=O [Compound I-1298]	26	
CCOc1ccc(/N=c2\[nH]c(=O)n(C[C@H](C)C(=O)O)c(=O)n2Cc2ccc(C)cc2)cc1F [Compound I-0610]	35	
Cc1cc(/N=c2\[nH]c(=O)n(CCCC(=O)N3CCOCC3)c(=O)n2Cc2ccc(Cl)cc2)ccc1OC(C)C [Compound I-0787]	24	
CC(C)Oc1ccc(/N=c2\[nH]c(=O)n(Cc3noc(=O)[nH]3)c(=O)n2Cc2ccc(Cl)cc2)cc1F [Compound I-0601]	31	
CNC(=O)C1(Cn2c(=O)[nH]/c(=N\c3ccc(OC(C)C)c(C)c3)n(Cc3ccc(Cl)cc3)c2=O)CC1 [Compound I-0703]	15	
Cc1nsc(Oc2ccc(/N=c3\[nH]c(=O)n(CC(CO)CO)c(=O)n3Cc3ccc(F)cc3)cc2)n1 [Compound I-2605]		IC50 [3]: 14 nM
CCn1c(=O)[nH]/c(=N\c2ccc(Oc3nc(OC)nc(OC)n3)cc2)n(Cc2ccc(Cl)cc2)c1=O [Compound I-2220]	37	
C[C@@H](C(=O)O)[C@H](C)n1c(=O)[nH]/c(=N\c2ccc3c(c2)CCC(=O)N3)n(Cc2ccc(Cl)cc2)c1=O [Compound I-1819]		IC50 [1]: 873 nM
COC(=O)[C@@H](C)Cn1c(=O)[nH]/c(=N\c2ccc(OCCO)cc2)n(Cc2ccc(Cl)cc2)c1=O [Compound I-0719]	115	

SMILES	IC50 [2] [nM]	also measured
CCc1oc2ccc(/N=c3\[nH]c(=O)n(CCCC(N)=O)c(=O)n3Cc3ccc(Cl)cc3)cc2c1C [Compound I-1710]		IC50 [1]: 6 nM
Cc1nc2ccc(/N=c3\[nH]c(=O)n(C)c(=O)n3Cc3ccc(Cl)cc3)cc2s1 [Compound I-1737]		IC50 [1]: 19 nM
CCn1c(=O)[nH]/c(=N\c2ccc(Oc3cc(F)cc(C(N)=O)c3)cc2)n(Cc2ccc(Cl)cc2)c1=O [Compound I-2233]		IC50 [3]: 2 nM
CC1(C)OCC(Cn2c(=O)[nH]/c(=N\c3ccc(OCC4CC4)cc3)n(Cc3ccc(Cl)cc3)c2=O)CO1 [Compound I-1841]		IC50 [1]: 6 nM
Cc1ccc(Cn2c(=O)n(C[C@H](C)C(=O)O)c(=O)[nH]/c2=N\c2ccc(N3CCCCCC3)cc2)cc1 [Compound I-1237]	183	
CC1(Cn2c(=O)[nH]/c(=N\c3ccc(Oc4ccon4)cc3)n(Cc3ccc(Cl)cc3)c2=O)COC(C)(C)OC1 [Compound I-2630]		IC50 [3]: 3 nM
Cc1[nH]c2ccc(/N=c3\[nH]c(=O)n(C[C@H](O)CO)c(=O)n3Cc3ccc(Cl)cc3)cc2c1C [Compound I-2043]	9	
CCn1c(=O)[nH]/c(=N\c2ccc(Oc3ccc(C(=O)OC)nc3)cc2)n(Cc2ccc(C)cc2)c1=O [Compound I-2106]	2	
COC(=O)[C@@H](C)Cn1c(=O)[nH]/c(=N\c2ccc(OCC(C)C)c(C)c2)n(Cc2ccc(Cl)cc2)c1=O [Compound I-0831]		IC50 [3]: 77 nM
COC(=O)[C@H](C)[C@H](C)n1c(=O)[nH]/c(=N\c2ccc(OC3CCC3)c(C)c2)n(Cc2ccc(C)cc2)c1=O [Compound I-1402]	33	
CC(C)Oc1ccc(/N=c2\[nH]c(OCC(=O)NN(C)C)nc(=O)n2Cc2ccc(Cl)cc2)cc1F [Compound I-0583]	38	
CCn1c(=O)[nH]/c(=N\c2ccc(Oc3cc(C(=O)O)n(C)n3)cc2)n(Cc2ccc(Cl)cc2)c1=O [Compound I-2491]		IC50 [3]: 74 nM
CCn1c(=O)[nH]/c(=N\c2ccc(Oc3ccc(C(=O)O)cn3)cc2)n(Cc2ccc(Cl)cc2)c1=O [Compound I-2320]		IC50 [3]: 6 nM
CCn1c(=O)[nH]/c(=N\c2ccc(Oc3ccnc(C(=O)O)c3)c(F)c2)n(Cc2ccc(Cl)cc2)c1=O [Compound I-2462]		IC50 [3]: 7 nM
Cc1ccc(Cn2c(=O)n(CCC(=O)O)c(=O)[nH]/c2=N\c2cc(C(F)(F)F)ccc2C)cc1 [Compound I-2082]	833	
CC(C)Oc1ccc(/N=c2\[nH]c(=O)n(CCC(=O)O)c(=O)n2CCC2C[C@H]3CC[C@@H]2C3)cc1F (some centres unmarked) [Compound I-1729]		IC50 [1]: 669 nM
CC(C)Cc1ccc(/N=c2\[nH]c(=O)n(C[C@H](C)C(=O)O)c(=O)n2Cc2ccc(Cl)cc2)cc1F [Compound I-1257]	9	
CCn1c(=O)[nH]/c(=N\c2ccc(Oc3nnn[nH]3)cc2)n(Cc2ccc(Cl)cc2)c1=O [Compound I-2515]		IC50 [3]: 346 nM
COC(=O)CCn1c(=O)[nH]/c(=N\c2ccc(Oc3cc(C#N)ccn3)cc2)n(Cc2ccc(C)cc2)c1=O [Compound I-2660]		IC50 [3]: 3 nM
CCOC(=O)Cn1c(=O)[nH]/c(=N\c2ccc(Oc3nc(C)ns3)cc2)n(Cc2ccc(Cl)cc2)c1=O [Compound I-2570]		IC50 [3]: 5 nM
CCC(CC)Oc1ccc(/N=c2\[nH]c(=O)n(C[C@H](C)C(=O)OC)c(=O)n2Cc2ccc(C)cc2)cc1 [Compound I-1048]		IC50 [1]: 38 nM

SMILES	IC50 [2] [nM]	also measured
Cc1nsc(Oc2ccc(/N=c3\[nH]c(=O)n(CC(N)=O)c(=O)n3Cc3ccc(Cl)cc3)cc2)n1 [Compound I-2589]		IC50 [3]: 6 nM
Cc1nc2ccc(/N=c3\[nH]c(=O)n(C[C@H](C)C(=O)O)c(=O)n3Cc3ccc(Cl)cc3)cc2s1 [Compound I-1349]	15	
O=C(O)Cn1c(=O)[nH]/c(=N\c2ccc(Oc3ccnc(O)c3)cc2)n(Cc2ccc(Cl)cc2)c1=O [Compound I-1932]	95	
CCc1nc2ccc(/N=c3\[nH]c(=O)n(CC(=O)NC)c(=O)n3Cc3ccc(Cl)cc3)cc2s1 [Compound I-1807]		IC50 [1]: 6 nM
C[C@@H](C(=O)O)[C@H](C)n1c(=O)[nH]/c(=N\c2ccc3c(c2)CCC3=O)n(Cc2ccc(Cl)cc2)c1=O [Compound I-1830]		IC50 [1]: 869 nM
CNC(=O)Cn1c(=O)[nH]/c(=N\c2ccc(OC3CCC3)cc2)n(Cc2ccc(Cl)cc2)c1=O [Compound I-1948]	22	
Cc1ccc(Cn2c(=O)n(C[C@H](C)C(=O)O)c(=O)[nH]/c2=N\c2ccc(CN(C)C)c(Cl)c2)cc1 [Compound I-1177]		IC50 [1]: 273 nM
COC(=O)[C@H](C)[C@H](C)n1c(=O)[nH]/c(=N\c2ccc(CC(C)C)c(OC)c2)n(Cc2ccc(Cl)cc2)c1=O [Compound I-1363]	56	
COC(=O)c1ccc(Oc2ccc(/N=c3\[nH]c(=O)n(C)c(=O)n3Cc3ccc(C)cc3)cc2)cc1 [Compound I-2030]	6	
COC(=O)C(C)(C)Cn1c(=O)[nH]/c(=N\c2cccc(C(F)(F)F)c2)n(Cc2ccc(C)cc2)c1=O [Compound I-1258]	8	
CCn1c(=O)[nH]/c(=N\c2ccc(Oc3ccnc(N)c3)cc2)n(Cc2ccc(Cl)cc2)c1=O [Compound I-2166]	10	
CCn1c(=O)[nH]/c(=N\c2ccc(Oc3cc(C(=O)OC)sn3)cc2)n(Cc2ccc(Cl)cc2)c1=O [Compound I-2247]		IC50 [3]: 3 nM
C[C@@H](C(=O)O)[C@H](C)n1c(=O)[nH]/c(=N\c2ccc(Oc3cccnc3)cc2)n(Cc2ccc(Cl)cc2)c1=O [Compound I-1390]	15	
Cc1ccc(Cn2c(=O)n(C[C@H](C)C(=O)O)c(=O)[nH]/c2=N\c2cnc(Oc3ccccc3)c(Cl)c2)cc1 [Compound I-1476]	262	
O=c1[nH]/c(=N\c2ccc(OCC3CC3)cc2)n(Cc2ccc(Cl)cc2)c(=O)n1CCCO [Compound I-1917]	23	
Cc1ccc(Cn2c(=O)n(C)c(=O)[nH]/c2=N\c2ccc(Oc3cccc(C(=O)O)c3)cc2)cc1 [Compound I-2060]	22	
O=c1[nH]/c(=N\c2ccc(Oc3ccc4[nH]cnc4c3)cc2)n(Cc2ccc(Cl)cc2)c(=O)n1CCO [Compound I-2449]		IC50 [3]: 9 nM
Cc1cnc(Oc2ccc(/N=c3\[nH]c(=O)n(CC(O)CO)c(=O)n3Cc3ccc(Cl)cc3)cc2)s1 (centres unmarked) [Compound I-2456]		IC50 [3]: 8 nM
C=Cc1ccc(Cn2c(=O)n(C[C@H](C)C(=O)O)c(=O)[nH]/c2=N\c2ccc(OC(C)C)c(C)c2)cc1 [Compound I-0897, (S)-1-(4-vinylbenzyl)-6-(3-mehyl-4-isopropoxyphenylimino)-3-(2-hydroxycarbonylpropyl)-1,3,5-triazinane-2,4-dion]		IC50 [1]: 25 nM
COC(=O)[C@@H](C)Cn1c(=O)[nH]/c(=N\c2ccc(OC(C)C)c(O)c2)n(Cc2ccc(C)cc2)c1=O [Compound I-1128]		IC50 [1]: 21 nM
